The record followed here is publication PMC8000592, “Discovery and Optimization of Selective Inhibitors of Meprin α (Part I)” (Pharmaceuticals, 2021).

SMILES strings stand for the structures. Where two headings read alike, the source gives them in different places.

The target in experiment [1] is T1, meprin β (Homo sapiens, UniProt Q16820).
T1 sequence (Q16820 62-594 limits assumed): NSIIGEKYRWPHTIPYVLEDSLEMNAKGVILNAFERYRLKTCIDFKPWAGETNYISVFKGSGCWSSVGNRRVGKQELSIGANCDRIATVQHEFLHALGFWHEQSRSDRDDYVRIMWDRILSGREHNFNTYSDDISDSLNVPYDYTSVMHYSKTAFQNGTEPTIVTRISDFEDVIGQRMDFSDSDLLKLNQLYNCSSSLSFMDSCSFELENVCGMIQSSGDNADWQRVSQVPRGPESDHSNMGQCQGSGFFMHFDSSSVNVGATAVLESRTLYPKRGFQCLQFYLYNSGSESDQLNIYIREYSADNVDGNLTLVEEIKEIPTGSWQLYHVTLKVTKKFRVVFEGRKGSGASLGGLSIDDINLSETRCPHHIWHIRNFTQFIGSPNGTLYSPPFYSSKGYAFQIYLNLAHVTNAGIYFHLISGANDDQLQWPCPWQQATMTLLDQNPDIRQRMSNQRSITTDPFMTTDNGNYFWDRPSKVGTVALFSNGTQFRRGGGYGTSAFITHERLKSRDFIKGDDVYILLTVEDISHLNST
Kind of experiment: Meprin β assay, fluorogenic substrate (Mca)-EDEDED-(K-ε-Dnp), 384 and 1536 well plate formats. The format is biochemical. The text has this:
(§1) The meprin α and meprin β assays, which utilize the substrates (Mca)-YVADAPK-(K-ε-Dnp) and (Mca)-EDEDED-(K-ε-Dnp), respectively, have been described previously. To enable an ultra-high-throughput screening (uHTS) campaign, we proceeded to miniaturize both assays to 1536 well plate format (wpf). First, we recapitulated the assays in 1536 well plate using reagents at the same concentrations as in 384 well plate format assays by scaling the volume down by the factor of 2.5.
(§2) Both assays followed the same general protocol. A 5 µL measure of 2 × enzyme solution (2.6 and 0.1 nM for meprin α and meprin β, respectively) in assay buffer (50 mM Hepes, 0.01% Brij-35, pH 7.5) was added to solid bottom black 384 low volume plates (Nunc, cat# 264705). Next, 75 nL of test compounds or pharmacological control (actinonin or NFF449) were added to corresponding wells using a 384-pin tool device (V&P Scientific, San Diego, CA, USA). After 30 min incubation at RT, the reactions were started by addition of 5 µL of 2 × solutions of substrates (20 µM, mepin α substrate Mca-YVADAPK-K(Dnp) or meprin β substrate Mca-EDEDED-K(Dnp)). Reactions were incubated at RT for 1 h, after which the fluorescence was measured using the Synergy H4 multimode microplate reader (Biotek Instruments) (λexcitation = 324 nm, λemission = 390 nm).
(§3) Both assays followed the same general protocol. A 2 µL portion of 2 × enzyme solution (1.3 and 0.0125 nM for meprin α and meprin β, respectively) in assay buffer (50 mM Hepes, 0.01% Brij-35, pH 7.5) was added to solid bottom black 1536 low volume plates (Corning cat# 7261). Next, 30 nL of test compounds or pharmacological control (actinonin or NFF449) was added to corresponding wells using a 1536 pin tool device (V&P Scientific, San Diego). After 30 min incubation at RT, the reactions were started by addition of 2 µL of 2x solutions of substrates (20 µM, meprin α substrate Mca-YVADAPK-K(Dnp) or meprin β substrate Mca-EDEDED-K(Dnp)). Reactions were incubated at RT for 1 h, after which the fluorescence was measured using the Viewlux multimode microplate reader (Perkin Elmer) (λexcitation = 324 nm, λemission = 390 nm).
(§4) The miniaturized 1536-well plate format meprin α and meprin β assays were used to screen a collection of approximately 650,000 compounds (The Scripps Research library, La Jolla, CA, USA) on the automated Kalypsys/GNF platform at The Scripps Research Molecular Screening Center (SRMSC, Jupiter, FL, USA: http://hts.florida.scripps.edu/). Both uHTS campaigns were run separately but in a similar manner. Briefly, the first step was the primary screen of all test compounds as singlicates against the meprin α and meprin β target at a final concentration of 7.0 μM. Next, compounds selected as primary hits were cherry-picked and retested in triplicate against the primary screen target and its antitarget (meprin α for the meprin β screening effort, and vice versa) at a same final concentration of 7.0 μM. The additional counter screen assays against related metzincins (MMP-8, MMP-14, and ADAM10) were performed in triplicate at a final concentration of 7.0 μM. The final step was the titration of selected hits as 10-point, 1:3 serial dilutions in both the target and antitarget assay, starting at a final nominal concentration of 17 μM. […] Wells treated with DMSO only were used as negative controls and 0% inhibition reference. […] All data generated during this effort were uploaded to the SRMSC’s institutional screening database (Assay Explorer, Symyx). Sample to background (S/B) ratios, as well as Z and Z’ values, were calculated on a per plate basis as described 14. Curve fitting and resulting IC50 determinations were performed as previously reported.

Experiment [2] deals with T2, meprin α (Homo sapiens, UniProt Q16819).
T2 sequence (Q16819 66-593 limits assumed): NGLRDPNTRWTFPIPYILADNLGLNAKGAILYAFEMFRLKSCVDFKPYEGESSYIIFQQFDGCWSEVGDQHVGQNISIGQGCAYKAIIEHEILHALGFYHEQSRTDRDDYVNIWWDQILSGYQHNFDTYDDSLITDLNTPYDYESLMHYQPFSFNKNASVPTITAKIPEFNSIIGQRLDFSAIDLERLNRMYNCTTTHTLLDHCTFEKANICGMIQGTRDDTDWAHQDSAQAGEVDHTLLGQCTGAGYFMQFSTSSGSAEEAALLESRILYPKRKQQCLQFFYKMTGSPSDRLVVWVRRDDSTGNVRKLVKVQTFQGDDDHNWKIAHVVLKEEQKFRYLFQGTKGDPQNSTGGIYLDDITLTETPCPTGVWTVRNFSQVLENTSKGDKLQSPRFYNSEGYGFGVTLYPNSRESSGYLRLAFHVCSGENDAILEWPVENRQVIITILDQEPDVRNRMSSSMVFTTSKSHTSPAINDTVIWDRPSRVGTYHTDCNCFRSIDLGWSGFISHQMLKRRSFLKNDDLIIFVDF
Kind of experiment: Meprin α assay, fluorogenic substrate (Mca)-YVADAPK-(K-ε-Dnp), 384 and 1536 well plate formats. The format is biochemical. Conditions: for selectivity for meprin α: versus meprin β, in words.
Description: as §1, §2, §3, §4

The mark [3] stands for this setting: triplicate, 10-point, 3:1 serial dilution, highest concentration 17.4 µM, read-out: Meprin β IC50.
The mark [4] stands for this setting: triplicate, 10-point, 3:1 serial dilution, highest concentration 17.4 µM, read-out: Meprin α IC50.

Take `O=C(c1ccc(C(=O)O)c([N+](=O)[O-])c1)c1ccc(C(=O)O)c([N+](=O)[O-])c1` [SR355996]: the half-inhibitory concentration (IC50) (as a rule, the point on the concentration scale where inhibition reaches its midpoint) was 0.97 µM in experiment [1] (setting [3]) and greater than 17 µM in experiment [2] (setting [4]).

As to `O=C(CCN(Cc1cccs1)S(=O)(=O)c1ccc([N+](=O)[O-])cc1)NO` [Compound 162799], in experiment [1] (setting [3]), the 50% inhibitory concentration (IC50) was greater than 17 µM. Besides, in experiment [2], the “selectivity against meprin β and other tested metzincins” value is on record as greater than 30 fold; the “selectivity for meprin α” value was “show selectivity for meprin α”. For the same molecule, in experiment [2] (triplicate, 10-point, 3:1 serial dilution, highest concentration 17.4 µM), the “Meprin α IC50” value was “sub-micromolar”. Besides, the IC50 in experiment [2] (setting [4]) was found to be 0.564 µM.

As to `O=C(CCN(Cc1ccccc1)S(=O)(=O)c1ccc(F)cc1)NO` [Compound 162808], in experiment [1] (setting [3]), the 50% inhibitory concentration (IC50) was greater than 17 µM. In experiment [2], the “selectivity against meprin β and other tested metzincins” value was greater than 30 fold; the “selectivity for meprin α” value is listed as “show selectivity for meprin α”. The “Selectivity Fold” value in experiment [2] (meprin α versus meprin β) is 38 fold. Further, the IC50 in experiment [2] (setting [4]) came to 0.446 µM.

For the molecule `O=C(CSc1nnc(NC(=O)COc2ccccc2)s1)NO` [Compound 19848], the results for the IC50 in experiment [1] (setting [3]) and in experiment [2] (setting [4]) were 0.385 µM and 0.335 µM, respectively.

Turning to `O=[N+]([O-])c1ccc(CN2CCC3(CCc4ccccc43)CC2)o1` [SR207820], the 50% inhibitory concentration (IC50) is 1.5 µM in experiment [1] (setting [3]) and greater than 17 µM in experiment [2] (setting [4]).

Take `COc1cc(OC)cc(C(=O)CNc2nnc(SCC(=O)NO)s2)c1` [Compound 19849]: the concentration for half-maximal inhibition (IC50) in experiment [1] (setting [3]) stood at 0.287 µM; in experiment [2] (setting [4]) it was 0.218 µM.

As to `COc1ccc(-n2c(CSc3ncccn3)nnc2SCC(=O)NO)cc1` [Compound 19855], in experiment [1] (setting [3]), the concentration for half-maximal inhibition (IC50) was greater than 17 µM. Also, the “selectivity for meprin α” value in experiment [2] was “show selectivity for meprin α”.

Regarding `CSc1nnc2c(n1)OC(c1ccc([N+](=O)[O-])o1)Nc1ccccc1-2` (stereo not shown) [SR412882], the values for the IC50 in experiment [1] (setting [3]) and in experiment [2] (setting [4]) were 3.5 µM and greater than 17 µM, respectively.

As for `O=C(CSc1nnc(NC(=O)c2ccccc2)s1)NO` [Compound 19847], the half-maximal inhibitory concentration (IC50) in experiment [1] (setting [3]) was found to be 1.43 µM; in experiment [2] (setting [4]), 0.892 µM.

On to `O=C(Nc1cc(C(=O)Nc2ccc(S(=O)(=O)O)cc2S(=O)(=O)O)cc(C(=O)Nc2ccc(S(=O)(=O)O)cc2S(=O)(=O)O)c1)Nc1cc(C(=O)Nc2ccc(S(=O)(=O)O)cc2S(=O)(=O)O)cc(C(=O)Nc2ccc(S(=O)(=O)O)cc2S(=O)(=O)O)c1` [NFF449], for which the increased apparent potency in experiment [1] (2.5 µM substrate condition) amounted to 3 fold. The 50% inhibitory concentration (IC50) was found to be 0.01 µM in experiment [1] (1536 wpf, 0.0125 nM enzyme, substrate 2.5uM, time 30 min, read-out: NF449 IC50); 0.011 µM in experiment [1] (1536 wpf, 0.0125 nM enzyme, substrate 2.5uM, time 60 min, read-out: NF449 IC50); 0.017 µM in experiment [1] (1536 wpf, 0.0125 nM enzyme, substrate 5uM, time 30 min, read-out: NF449 IC50); 0.02 µM in experiment [1] (1536 wpf, 0.0125 nM enzyme, substrate 5uM, time 60 min, read-out: NF449 IC50); 0.022 µM in experiment [1] (1536 wpf, 0.0125 nM enzyme, substrate 5uM, time 90 min, read-out: NF449 IC50); 0.034 µM in experiment [1] (1536 wpf, 0.0125 nM enzyme, substrate 10uM, time 30 min, read-out: NF449 IC50). Besides, the IC50 in experiment [1] (1536 wpf, 0.0125 nM enzyme, substrate 10uM, time 60 min, read-out: NF449 IC50) was 0.032 µM; in experiment [1] (1536 wpf, 0.0125 nM enzyme, substrate 10uM, time 90 min, read-out: NF449 IC50), 0.034 µM; in experiment [1] (1536 wpf, enzyme 0.0125nM, time 30 min, read-out: NF449 IC50), 0.0252 µM; in experiment [1] (1536 wpf, enzyme 0.0125nM, time 60 min, read-out: NF449 IC50), 0.0304 µM; in experiment [1] (1536 wpf, enzyme 0.0125nM, time 90 min, read-out: NF449 IC50), 0.0339 µM; in experiment [1] (1536 wpf, enzyme 0.025nM, time 30 min, read-out: NF449 IC50), 0.031 µM. Moreover, the IC50 worked out at 0.0362 µM in experiment [1] (1536 wpf, enzyme 0.025nM, time 60 min, read-out: NF449 IC50); 0.0392 µM in experiment [1] (1536 wpf, enzyme 0.025nM, time 90 min, read-out: NF449 IC50); 0.0296 µM in experiment [1] (1536 wpf, enzyme 0.05nM, time 30 min, read-out: NF449 IC50); 0.0346 µM in experiment [1] (1536 wpf, enzyme 0.05nM, time 60 min, read-out: NF449 IC50); 0.0394 µM in experiment [1] (1536 wpf, enzyme 0.05nM, time 90 min, read-out: NF449 IC50); 0.053 µM in experiment [1] (Meprin β 384 wpf, read-out: IC50). Moreover, the IC50 in experiment [1] (Meprin β 1536 wpf, read-out: IC50) is 0.048 µM; in experiment [1] (control compound in primary HTS campaign, n = 11 plates, read-out: IC50) it was 0.0104 ± 0.00085 µM; in experiment [2] (Meprin α 384 wpf, read-out: IC50), greater than 100 µM; in experiment [2] (Meprin α 1536 wpf, read-out: IC50), greater than 100 µM.

In the case of `O=C(COc1ccc(Cl)cc1Cl)NO` [Compound 1596857], the concentration for half-maximal inhibition (IC50) is greater than 17 µM in experiment [1] and 1.18 µM in experiment [2].
